Measured values from US20050112573A1, “Method of detecting toxic substance” (priority 2001, published 2005).

System: yeast genes (level of expressed mRNA)
Experiment: DNA chip analysis of expressed mRNA of yeast genes after 2 h culture with a toxic chemical substance
Assay type: cell-based, Saccharomyces cerevisiae S288C
Experimental: Yeast (Saccharomyces cerevtisiae S288C (α SUC2mal mel gap2 CUP1)) were cultured at 25° C. on YPD medium (yeast extract 1%, polypepton 2%, glucose 2%). One of toxic chemical substances was added to the cell at logarithmic growth phase, and the cell was further cultured for two hours. Cell was cultured without any chemical substance in the same condition, and was used as control. Concentrations of the chemical substances were defined to inhibit the growth of the yeast but not lead to death.
After the completion of cultivation, the culture was centrifuged to collect the cells. To the cells, sodium acetate buffer (50 mM sodium acetate, 10 mM EDTA, 1% SDS) was added, and the mixture was shaken at 65° C. for five minutes, followed by returning to room temperature, and obtaining the supernatant, which procedure was repeated two times. To the supernatant, ½ amount of a solution of phenol/chloroform was added, and the mixture was centrifuged to give a supernatant, which was added with an equal amount of chloroform, and the mixture was centrifuged to give a supernatant. To the supernatant, an equal amount of isopropanol containing 0.3 M sodium acetate was added, and the mixture was allowed to stand at room temperature for 30 minutes, after which the mixture was centrifuged to give a sediment of the whole RNAs. Seventy % ethanol was added to the sediment, and the mixture was again centrifuged to give a sediment, which was then dried and dissolved in water. mRNA was isolated from the whole RNAs as followings. In view of the fact that a poly A chain is attached to the 3′ terminus of mRNA, a polynucleotide having a poly T structure which was immobilized on the surface of latex beads was used to trap the mRNA, and then the mRNA was washed and eluted with spine column (Oligotex-dT30<Super>mRNA Purification Kit, Takara). Reverse transcription of the mRNA was conducted with a reverse transcriptase (Super Script II Reverse Transcriptase; catalogue No. 18064-014, GibcoBRL) using fluorescence-labeled nucleotides to give cDNAs that were introduced with Cy3-dUTP or Cy5-dUTP during the reverse transcription.
The labeled cDNAs were dissolved in TE buffer (10 mM Tris-HCl/1 mM EDTA, pH8.0), and the solution was dropped on the DNA chip containing the whole genes of yeast (DNA Chip Research Inc. Japan) so that the cDNAs were hybridized on the DNA chip at 65° C. for over 12 hours. The fluoresces intensity of the DNA chip was read with a scanner, and the ratio relative to the fluorescence intensity resulting from the absence of chemical substance was estimated as the following, which is shown in Tables 1 to 9: [formula]
In the Tables, “Intensity” indicated in the rightmost column is a value of the level of expressed mRNA of each gene in control cells as divided by the average level of the expressions of the whole genes.

For γ-hexachlorocyclohexane [(7)], the “The level of expressed mRNA in the presence of chemical substance/The level of expressed mRNA in the absence of chemical substance” value (yeast gene YKL096W) was 0.2, the “The level of expressed mRNA in the presence of chemical substance/The level of expressed mRNA in the absence of chemical substance” value (yeast gene YKL139W) was 2.6 and the “The level of expressed mRNA in the presence of chemical substance/” value (yeast gene YKL151C, ratio to control without chemical substance, 2 h culture) was 5.6. For the same substance, the “The level of expressed mRNA in the presence of chemical substance/” value (yeast gene YKL153W, ratio to control without chemical substance, 2 h culture) was 1.1, the “The level of expressed mRNA in the presence of chemical substance/The level of expressed mRNA in the absence of chemical substance” value (yeast gene YKL165C) was 2.1 and the “The level of expressed mRNA in the presence of chemical substance/The level of expressed mRNA in the absence of chemical substance” value (yeast gene YKL193C) was 2.1. For the same substance, the “The level of expressed mRNA in the presence of chemical substance/” value (yeast gene YKL195W, ratio to control without chemical substance, 2 h culture) was 2.1, the “The level of expressed mRNA in the presence of chemical substance/in the absence of chemical substance” value (yeast gene YKR009C) was 1.0 and the “The level of expressed mRNA in the presence of chemical substance/The level of expressed mRNA in the absence of chemical substance” value (yeast gene YKR014C) was 1.7. The “The level of expressed mRNA in the presence of chemical substance/” value (yeast gene YKR091W, ratio to control without chemical) was 1.3, the “The level of expressed mRNA in the presence of chemical substance/” value (yeast gene YLR054C, ratio to control without chemical substance, 2 h culture) was 1.1 and the “The level of expressed mRNA in the presence of chemical substance/The level of expressed mRNA in the absence of chemical substance” value (yeast gene YLR120C) was 1.5. The “The level of expressed mRNA in the presence of chemical substance/The level of expressed mRNA in the absence of chemical substance” value (yeast gene YLR136C) was 3.9, the “The level of expressed mRNA in the presence of chemical substance/” value (yeast gene YLR149C, ratio to control without chemical substance, 2 h culture) was 1.6 and the “The level of expressed mRNA in the presence of chemical substance/” value (yeast gene YLR152C, ratio to control without chemical substance, 2 h culture) was 1.4. The “The level of expressed mRNA in the presence of chemical substance/The level of expressed mRNA in the absence of chemical substance” value (yeast gene YLR178C) was 3.3, the “The level of expressed mRNA in the presence of chemical substance/” value (yeast gene YLR194C, ratio to control without chemical) was 1.0 and the “The level of expressed mRNA in the presence of chemical substance/The level of expressed mRNA in the absence of chemical substance” value (yeast gene YLR250W) was 1.9. The “The level of expressed mRNA in the presence of chemical substance/” value (yeast gene YLR324W, ratio to control without chemical substance, 2 h culture) was 1.0, the “The level of expressed mRNA in the presence of chemical substance/The level of expressed mRNA in the absence of chemical substance” value (yeast gene YLR327C) was 5.7 and the “The level of expressed mRNA in the presence of chemical substance/” value (yeast gene YLR350W, ratio to control without chemical substance, 2 h culture) was 1.2. The “The level of expressed mRNA in the presence of chemical substance/in the absence of chemical substance” value (yeast gene YLR351C) was 1.4, the “The level of expressed mRNA in the presence of chemical substance/The level of expressed mRNA in the absence of chemical substance” value (yeast gene YLR356W) was 1.1 and the “The level of expressed mRNA in the presence of chemical substance/The level of expressed mRNA in the absence of chemical substance” value (yeast gene YLR362W) was 1.9. The “The level of expressed mRNA in the presence of chemical substance/in the absence of chemical substance” value (yeast gene YLR375W) was 0.9, the “The level of expressed mRNA in the presence of chemical substance/” value (yeast gene YLR387C, ratio to control without chemical substance, 2 h culture) was 1.1 and the “The level of expressed mRNA in the presence of chemical substance/The level of expressed mRNA in the absence of chemical substance” value (yeast gene YLR391W) was 0.7. The “The level of expressed mRNA in the presence of chemical substance/The level of expressed mRNA in the absence of chemical substance” value (yeast gene YLR429W) was 1.3, the “The level of expressed mRNA in the presence of chemical substance/” value (yeast gene YLR460C, ratio to control without chemical substance, 2 h culture) was 1.1 and the “The level of expressed mRNA in the presence of chemical substance/” value (yeast gene YML117W, ratio to control without chemical substance, 2 h culture) was 0.7. The “The level of expressed mRNA in the presence of chemical substance/The level of expressed mRNA in the absence of chemical substance” value (yeast gene YMR004W) was 1.2, the “The level of expressed mRNA in the presence of chemical substance/” value (yeast gene YMR009W, ratio to control without chemical substance, 2 h culture) was 1.9 and the “The level of expressed mRNA in the presence of chemical substance/” value (yeast gene YMR067C, ratio to control without chemical substance, 2 h culture) was 1.2. For the same substance, the “The level of expressed mRNA in the presence of chemical substance/” value (yeast gene YMR090W, ratio to control without chemical substance, 2 h culture) was 2.7, the “The level of expressed mRNA in the presence of chemical substance/The level of expressed mRNA in the absence of chemical substance” value (yeast gene YMR094W) was 0.8 and the “The level of expressed mRNA in the presence of chemical substance/” value (yeast gene YMR095C, ratio to control without chemical) was 1.2. The “The level of expressed mRNA in the presence of chemical substance/” value (yeast gene YMR097C, ratio to control without chemical substance, 2 h culture) was 1.5, the “The level of expressed mRNA in the presence of chemical substance/” value (yeast gene YMR102C, ratio to control without chemical substance, 2 h culture) was 1.8 and the “The level of expressed mRNA in the presence of chemical substance/The level of expressed mRNA in the absence of chemical substance” value (yeast gene YMR104C) was 1.5. The “The level of expressed mRNA in the presence of chemical substance/” value (yeast gene YMR107W, ratio to control without chemical substance, 2 h culture) was 1.2, the “The level of expressed mRNA in the presence of chemical substance/” value (yeast gene YMR180C, ratio to control without chemical substance, 2 h culture) was 1.7 and the “The level of expressed mRNA in the presence of chemical substance/” value (yeast gene YMR184W, ratio to control without chemical substance, 2 h culture) was 1.6. For the same substance, the “The level of expressed mRNA in the presence of chemical substance/” value (yeast gene YMR191W, ratio to control without chemical substance, 2 h culture) was 2.0, the “The level of expressed mRNA in the presence of chemical substance/The level of expressed mRNA in the absence of chemical substance” value (yeast gene YMR226C) was 1.8 and the “The level of expressed mRNA in the presence of chemical substance/in the absence of chemical substance” value (yeast gene YMR267W) was 1.2. For the same substance, the “The level of expressed mRNA in the presence of chemical substance/The level of expressed mRNA in the absence of chemical substance” value (yeast gene YMR275C) was 0.8, the “The level of expressed mRNA in the presence of chemical substance/The level of expressed mRNA in the absence of chemical substance” value (yeast gene YMR276W) was 1.1 and the “The level of expressed mRNA in the presence of chemical substance/in the absence of chemical substance” value (yeast gene YMR278W) was 1.8. The “The level of expressed mRNA in the presence of chemical substance/in the absence of chemical substance” value (yeast gene YMR293C) was 1.2, the “The level of expressed mRNA in the presence of chemical substance/” value (yeast gene YMR295C, ratio to control without chemical substance, 2 h culture) was 1.3 and the “The level of expressed mRNA in the presence of chemical substance/The level of expressed mRNA in the absence of chemical substance” value (yeast gene YMR314W) was 1.1. The “The level of expressed mRNA in the presence of chemical substance/” value (yeast gene YMR316W, ratio to control without chemical substance, 2 h culture) was 2.0, the “The level of expressed mRNA in the presence of chemical substance/The level of expressed mRNA in the absence of chemical substance” value (yeast gene YNL006W) was 1.6 and the “The level of expressed mRNA in the presence of chemical substance/The level of expressed mRNA in the absence of chemical substance” value (yeast gene YNL007C) was 1.2. The “The level of expressed mRNA in the presence of chemical substance/” value (yeast gene YNL044W, ratio to control without chemical substance, 2 h culture) was 0.9.
